Measured values published in ChEMBL document CHEMBL3507680, “University of Dundee, Gates Library screen for HepG2 cell viability”.

Test: Human HepG2 cell viability assay in 384 well format
Type: toxicity, cell-based
Parameters: dose 125 nL, time 70.5 hour; concentration not given beside the values
Conditions: HepG2 cells, read-out: Inhibition

Row | Compound | cytotoxicity at 70.5 h [%]
1 | CSCCC(=O)N1CC[C@@H](N2CCN(c3ccccc3F)CC2)[C@H](O)C1 | 33.8
2 | CCN(Cc1ccncc1)C(=O)c1cc(C)c(C)c(S(N)(=O)=O)c1 | -2.98
3 | Cc1ncsc1CCN(C)C(=O)c1c(O)cccc1O | 10.9
4 | CCc1nn(C)c(Cl)c1CN1CCC(c2cc(O)nc(C)n2)CC1 | -10.5
5 | COc1ccc(Cl)cc1-n1cnc(CCNC(C)=O)c1 | -4.49
6 | COc1cccc(S(=O)(=O)N2C[C@@H](N(C)C)[C@H](C(C)C)C2)c1 | -0.713
7 | CCn1c(CN(C)C)nnc1C1CCN(c2nccc(NC)n2)CC1 | -2.22
8 | Cc1cc(NCC2CCS(=O)(=O)C2)n2nc(C)cc2n1 (stereo not given) | 12.6
9 | O=C(Nc1cnn(CC(=O)N2CCCCO2)c1)c1ccccn1 | 2.98
10 | O=C(Cn1cccn1)NCC1CCN(Cc2cc3ccccc3[nH]2)C1 (stereo not given) | -14.4
11 | N[C@H]1CN(C(=O)c2ccc(CO)cc2)C[C@@H]1C1CC1 | 6.41
12 | CN(CC1CCCCO1)c1ncnc2cc(F)ccc12 (stereo not given) | -9.25
13 | CCc1ncc(C(=O)N(C)C(C)c2ccc3c(c2)OCCO3)cn1 (stereo not given) | 1.19
14 | Cc1ccccc1OCC(O)C(=O)N1CCC2(CC1)CN(C)C(=O)O2 (stereo not given) | -4.24
15 | O=C1CC[C@H]2CN(c3ncc(F)cn3)CC[C@H]2N1CCc1ccccc1 | -6.02
16 | Cc1nnc(CCNC(=O)[C@H]2CNC[C@@H](C(=O)N3CCCC3)C2)s1 | -6.7
17 | CC1(c2ccccc2)CCC(=O)N(CCN2CCOC2=O)C1 (stereo not given) | -2.39
18 | COCCOCC(=O)N1CCC(c2ccccc2F)C1 (stereo not given) | -9.1
19 | CC(C)(C)SCCNC(=O)[C@@]12CNC[C@@H]1CN(S(C)(=O)=O)C2 | -2.8
20 | O=C(O)c1cc(-c2ccoc2)cc(S(=O)(=O)N2CCSCC2)c1 | -4.7
21 | Cc1cccc(-n2nc(CC(C)C)nc2[C@H](C)O)c1 | 16.4
22 | CN(CCNC(=O)c1cnc(-c2ccncc2)nc1)S(C)(=O)=O | -7.17

Row | Compound | cytotoxicity at 70.5 h [%]
23 | O=C(CCN1CCCCC1)N1CCC(Cc2ccc(CO)cc2)C1 (stereo not given) | -6.38
24 | CN(Cc1ccon1)c1nc(-c2ccccn2)nc2c1CCNCC2 | 12.3
25 | O=C(CN1C(=O)CCNC1=O)N1CCOC(c2ccc(F)cc2)C1 (stereo not given) | -2.25
26 | COc1cccc(-c2ncc(CN3CC[C@H]4CC[C@@H](C3)N4)s2)c1 | 9.35
27 | CCN(Cc1ccc(-c2ccccn2)cc1)C1CCS(=O)(=O)C1 (stereo not given) | -1.78
28 | O=C(NCc1csc(-c2cnccn2)n1)c1cnn2c1CCCC2 | -5.37
29 | COCCN1CCN(C(=O)c2ccc(C)cc2F)[C@H]2CS(=O)(=O)C[C@H]21 | -8.53
30 | CC(C)N(CCO)C(=O)C1CCC(=O)N(CCc2cccc(F)c2)C1 (stereo not given) | -10
31 | Cc1ccc(CN2CCN(Cc3cc(C)n[nH]3)CC2CCO)cc1 (stereo not given) | 12.1
32 | CCn1nc(CC(C)C)cc1C(=O)N1CCCC(C#N)C1 (stereo not given) | 0.732
33 | CC(=O)N1C[C@H](NS(=O)(=O)Cc2cccc(Cl)c2)[C@@H](C(C)C)C1 | -6.96
34 | CCOc1ccnc(NCc2nc(C)cc(=O)[nH]2)n1 | -6.71
35 | Cc1cc(C)c(Cn2cncn2)cc1CN1CC[C@H]2CC[C@@H](C1)N2 | 2.8
36 | CCC[C@H]1CN(Cc2nccn2C)C[C@@H]1NC(=O)C1(COC)CCC1 | -4.15
37 | O=C(NCc1cccnc1N1CCCC(O)C1)c1ccsc1 (stereo not given) | -20.7
38 | Cc1cc2nc(C(C)C)cc(N3CCC(N(C)C)C3)n2n1 (stereo not given) | 2.59
39 | Cc1cc(C2CCC2)nc(N2CCC3(CC2)OCCCC3O)n1 (stereo not given) | -8.75
40 | Cc1[nH]nc(CCC(=O)N2C[C@H]3CC[C@@H]2CN(C(=O)N(C)C)C3)c1C | -8.2
41 | O=C(O)CN(Cc1ccsc1)CC1CCCO1 (stereo not given) | -2.27
42 | CC1(C)CC(CN2CCC3(CCC(=O)N(C4CCC4)C3)CC2)CCO1 (stereo not given) | -9.04
43 | O=C(CCCN1CCCCC1)NC(C(=O)O)c1cccc(F)c1 (stereo not given) | -6.49
44 | CCc1nc2c(NCC3COc4c(cccc4OC)C3)ncnc2o1 (stereo not given) | -4.9

Row | Compound | cytotoxicity at 70.5 h [%]
45 | COCc1noc(CN2CC(Cc3ccccc3)CC2=O)n1 (stereo not given) | -20.6
46 | CCc1ccc(CN(C)Cc2cnc(S(=O)(=O)CC)n2CCOC)cc1 | -7.48
47 | Cc1ccc(C(=O)N2CCC3(CCC(=O)N(C(C)C)C3)CC2)c(O)c1 | 29.9
48 | CC(O)c1cn(CC2CCN(C(=O)c3cscn3)CC2)nn1 (stereo not given) | -3.74
49 | CCSCCn1cc(-c2ncc[nH]2)nn1 | -17.4
50 | CCOC(=O)c1coc(N2CCN(Cc3ccc(C)cc3)C(=O)C2)n1 | 0.779
51 | COCCN(Cc1cnn(C)c1)c1nc2c(s1)c(C)nn2C | 3.84
52 | COCCn1cnnc1Cn1ccnc1-c1ccoc1 | 27.2
53 | CSCCC(=O)N(C/C=C/c1ccccc1)CCO | -5.02
54 | Cc1nn(CCC(=O)NC(C(=O)O)c2c(C)n[nH]c2C)c(C)c1C (stereo not given) | -3.08
55 | Cc1cc(N2CCN(C(=O)CCc3scnc3C)CC2)cc(C)n1 | 21.2
56 | COc1ccc2c(c1)Cc1c-2nc(N)c(C#N)c1C1CCOC1 (stereo not given) | 2.5
57 | CN(C)C(=O)N1C[C@@H]2CC[C@H](C1)N(C(=O)c1cccc(N(C)C)c1)C2 | -4.96
58 | NC(=O)CN1CC2(CCC1=O)CCN(Cc1ccc(F)cc1Cl)CC2 | -1.9
59 | O=C(NCC(F)F)c1ccc(S(=O)(=O)N2CCCC(O)C2)cc1 (stereo not given) | 18.2
60 | COCCc1noc(Cn2c(=O)[nH]c3ccccc32)n1 | -10.2
61 | CCN1CC2(CCN(CC3CCCO3)CC2)OC1=O (stereo not given) | -2.54
62 | CNc1ncc(C(=O)N2CC[C@@](O)(C3CCOCC3)[C@H](C)C2)cn1 | 5.71
63 | Cn1cc(-c2ccnc(NCC3CCN(Cc4ccccc4)C3)n2)cn1 (stereo not given) | 11.9
64 | COc1ccnc(CNc2cc(C3CC3)ncn2)c1 | -11.7
65 | COCc1noc(CN2C(=O)OC[C@@H]2C(C)C)n1 | 19.3
66 | O=C(N1CCC(OCc2ccccn2)CC1)C1(c2ccc(F)cc2)CC1 | -0.41

Row | Compound | cytotoxicity at 70.5 h [%]
67 | Cc1cc2nc(C(C)C)cc(N3CCN(c4ccc(O)cc4)CC3)n2n1 | -1.87
68 | COc1cc2c(cc1OC)CN(Cc1ncccc1C(=O)O)CC2 | -13.5
69 | C[C@@H]1CN(Cc2ccncc2)C[C@]1(C)O | -18
70 | Cc1ccc(-c2ccnc(N3CCC4(CCO4)CC3)n2)c(C)n1 | -6.98
71 | CCc1nc2c(c(NCc3nc(-c4cccnc4)no3)n1)CCNCC2 | -2.89
72 | COCC1(CNC(=O)Nc2cc(F)ccc2OC)CCCC1 | 6.61
73 | CC(C)C[C@H]1CN(c2nc3c(cc2C(N)=O)CCC3)CC[C@@]1(C)O | -7.33
74 | CN1C[C@@H](n2cnc(-c3ccccc3)c2-c2nccn2C)C[C@H]1C(=O)O | -11.9
75 | Cc1nn(C)cc1-c1ccnc(N(C)Cc2cnn(C)c2)n1 | -2.26
76 | CCOc1ccc(-c2ccc3c(c2)OCO3)cc1C(N)=O | 5.58
77 | COc1cccc(OC2CN(C(=O)c3c(C)noc3C)C2)c1 | -9.88
78 | O=C(CO)N1CC[C@@H](N2CCN(c3ccccc3F)CC2)[C@H](O)C1 | 6.39
79 | CN(Cc1cccc(OCCO)c1)Cc1cccc2ncccc12 | 19.3
80 | CN1CCN(Cc2cnn(-c3ccc(F)cc3)c2)[C@H]2CS(=O)(=O)C[C@H]21 | -4.08
81 | c1csc(CN(Cc2ccsc2)CC2CCCO2)n1 (stereo not given) | -1.84
82 | CCN(Cc1ccncc1)C(=O)C1COc2c(cccc2OC)C1 (stereo not given) | 6.05
83 | O=C1NCC2(CCCN(C(=O)c3ccc4c(c3)OCCO4)CC2)O1 (stereo not given) | -2.63
84 | COC(=O)N1CCN(C(=O)c2ccc(C)c(N3CCNC3=O)c2)CC1 | 14
85 | CC(C)(O)CCc1cccc(C(=O)NCc2cnn3cccnc23)c1 | -4.68
86 | Cn1cc(CN2CCCC(CCc3ccc(F)c(F)c3)C2)cn1 (stereo not given) | -2.93
87 | Cc1cc(C)n2nc(C(=O)N[C@H]3C[C@H]4CN(C)CCN4C3)cc2n1 | -6.02
88 | CC(C)CN1CCCC1c1ccc(C(=O)Nc2cn(C)nn2)s1 (stereo not given) | -0.657

Row | Compound | cytotoxicity at 70.5 h [%]
89 | CCn1ncc(C(=O)N2CCCN(CCCc3ccccc3)CC2)c1C | -2.97
90 | CCCS(=O)(=O)N1CCC2(CC1)CC(=O)N(Cc1cc(F)cc(F)c1)C2 | -7.19
91 | C=C(C)COc1ccccc1C(=O)NCCc1cc(O)nc(C)n1 | -11.9
92 | CN(Cc1n[nH]c2c1CCCC2)c1nc(C2CC2)nc2c1CCNCC2 | -1.06
93 | O=C(c1cnc(C2CC2)nc1O)N1CCN(Cc2ccccc2F)CC1 | 0.38
94 | COCCN1CCCC2(CCN(c3nccnc3N(C)C)C2)C1=O (stereo not given) | -14.9
95 | O=C(c1ccccc1C(F)(F)F)N1CC[C@@H](N2CCC(O)CC2)[C@H](O)C1 | -1.82
96 | CCc1nc(C)c(CN2CCN(c3ncnc4c(C)csc34)CC2)[nH]1 | -14
97 | CC(C)[C@H]1COC(=O)N1Cc1nccn1C1CC1 | -3.35
98 | Cc1ccc(F)c(NC(=O)CCC(=O)N(C)Cc2cc(C3CC3)[nH]n2)c1 | -8.19
99 | COc1ccc([C@@H]2CN(C(=O)CCn3cccn3)C[C@H]2NC(C)=O)cc1 | 6.76
100 | Cc1cc(N2CCC(C(=O)O)(n3ccc(C(C)C)n3)CC2)nc(N)n1 | 6.37
101 | OC1(CN2CCCCC2)CCN(c2ccc(C(F)(F)F)cn2)C1 (stereo not given) | -4.17
102 | CN(C)C1CCCN(C(=O)CCc2csc(N)n2)CC1 (stereo not given) | 1.01
103 | Cc1ccc2oc(CN3CCC(C(=O)O)(n4ccnc4)CC3)c(C)c2c1 | -16.8
104 | CSc1ccc(C(C(=O)O)N2CCC(C(=O)N3CCCC3)CC2)cc1 (stereo not given) | -4.74
105 | COCCNS(=O)(=O)c1cccc2c1CN(C(=O)c1cc(C)on1)CC2 | -2.31
106 | COc1cc(C)ccc1S(=O)(=O)N1CC[C@](C)(O)[C@H](C)C1 | -5.97
107 | Cc1cc(-c2nc(-c3ccccn3)nn2C2CCN(C)CC2)nc(C)n1 | -3.28
108 | Cc1c(CN2CCCC(C(=O)c3ccccc3)C2)cc(C#N)n1C (stereo not given) | -4.58
109 | O=C(CC1CCc2ccccc21)NC1(C(=O)O)CCOCC1 (stereo not given) | -14
110 | CC(NC(=O)CCCc1ccc(Cl)cc1)c1nnn[nH]1 (stereo not given) | -11.1
